Source: patent US20240140991A1, “ANTIBIOTIC NATURAL PRODUCT ANALOGUES” (THE QUEEN'S UNIVERSITY OF BELFAST, priority 2021, published 2024)
≈ marks a conversion by molar mass, not a printed value. Positions of bridges follow the written chain, without caps; N, C: chain ends. Non-standard residues stand in square brackets, D forms with d. Residues, ends and D or L forms follow the SMILES beside them. ξ: configuration not given here. *: point of attachment. Octanoyl(7-Me) = CC(C)CCCCCC(=O)*; Hexanoyl(4ξ-Me) = CCC(C)CCC(=O)*; dOrn = NCCC[C@@H](N)C(=O)O; Orn = NCCC[C@H](N)C(=O)O

Tested on: Escherichia coli ATCC 25922
Assay type: cell-based
Conditions: ATCC 25922
Experimental: Minimum inhibitory concentration (MIC) was determined by broth microdilution according to CLSI guidelines. Blood agar plates were inoculated with glycerol stocks of Escherichia coli ATCC 25922, E. coli ATCC 25922 MCR-1, E. coli MCR-1 (clinical isolate from Utrecht Medical Center, NL), E. coli EQAS MCR-2 (clinical isolate from Wageningen University and Research, NL), Kiebsielia pneumoniae ATCC 11228, K. pneumoniae ATCC 13883, K. pneumonia 2048 (clinical isolate from Vrije Universiteit Amsterdam Medical Center, NL), K. pneumonia JS-123 (clinical isolate from Utrecht Medical Center, NL), Acinetobacter baumannii ATCC 17961, A. baumannil ATCC 17978, A. baumannii 2018-006 (clinical isolate from Rijksinstituut voor Volksgezondheid en Milieu, NL), A. baumannii MDR (clinical isolate from Vrije Universiteit Amsterdam Medical Center, NL), Pseudomonas aeruginosa ATCC 27853, P. aeruginosa PAO1, P. aeruginosa NRZ-03961 (Reference strain from Das Nationale Referenzzentrum für gramnegative Krankenhauserreger, DE), P. aeruginosa M-120 (clinical isolate from Leiden University Medical Center, NL) and Staphylococcus aureus USA300 (clinical isolate from Texas Children's Hospitalm, USA). E. coli 25922 MCR1 was grown on LB agar supplemented with kanamycin. The inoculated agar plates were then incubated for 16 hours at 37° C. Individually grown colonies were subsequently used to inoculate 3 mL aliquots of TSB that were then incubated at 37° C. with shaking at 220 rpm. In parallel, the compounds to be assessed were serially diluted with Mueller-Hinton broth (MHB) in polypropylene 96-well plates (50 μL in each well). Once the OD600 of the bacterial suspensions reached 0.5, the bacteria were diluted with MHB (final concentration 2×10^5 CFU mL^−1) and added to the microplates containing the test compounds (50 μL to each well, final volume: 100 μL). The well-plates were sealed with an adhesive membrane and after 16 hours of incubation at 37° C. with shaking at 220 rpm the wells were visually inspected for bacterial growth. MIC values were defined as the lowest concentration of the compound that prevented visible growth of bacteria.

Row | Minimum inhibitory concentration (MIC) [µg/mL] | Structure (SMILES)
1 | 4 to 8 | CC[C@H](C)[C@H](NC(=O)[C@@H](NC(=O)[C@H](Cc1c[nH]c2ccccc12)NC(=O)[C@@H](CCCN)NC(=O)CNC(=O)[C@H](CCCN)NC(=O)[C@@H](CCCN)NC(=O)[C@@H](Cc1c[nH]c2ccccc12)NC(=O)[C@@H](Cc1ccc(O)cc1)NC(=O)[C@@H](C)NC(=O)CCCCCC(C)C)[C@@H](C)O)C(=O)N[C@@H](CC(N)=O)C(=O)NCC(=O)NCC(N)=O [Ala1 (D-Ser→D-Ala), FA-aywoOGoWTINGG-CONH2] ({Octanoyl(7-Me)}-[dA][dY][dW][dOrn][Orn]G[dOrn]WTINGG-NH2)
2 | 8 to 16 | CC[C@H](C)[C@H](NC(=O)[C@@H](NC(=O)[C@H](Cc1c[nH]c2ccccc12)NC(=O)[C@@H](CCCN)NC(=O)CNC(=O)[C@H](CCCN)NC(=O)[C@@H](CCCN)NC(=O)[C@@H](Cc1c[nH]c2ccccc12)NC(=O)[C@@H](C)NC(=O)[C@@H](CO)NC(=O)CCCCCC(C)C)[C@@H](C)O)C(=O)N[C@@H](CC(N)=O)C(=O)NCC(=O)NCC(N)=O [Ala2 (D-Tyr→D-Ala), FA-sawoOGoWTINGG-CONH2] ({Octanoyl(7-Me)}-[dS][dA][dW][dOrn][Orn]G[dOrn]WTINGG-NH2)
3 | 16 (≈ 10.6 µM) | CC[C@H](C)[C@H](NC(=O)[C@@H](NC(=O)[C@H](Cc1c[nH]c2ccccc12)NC(=O)[C@@H](CCCN)NC(=O)CNC(=O)[C@H](CCCN)NC(=O)[C@@H](CCCN)NC(=O)[C@@H](C)NC(=O)[C@@H](Cc1ccc(O)cc1)NC(=O)[C@@H](CO)NC(=O)CCCCCC(C)C)[C@@H](C)O)C(=O)N[C@@H](CC(N)=O)C(=O)NCC(=O)NCC(N)=O [Ala3 (D-Trp→D-Ala), FA-syaoOGoWTINGG-CONH2] ({Octanoyl(7-Me)}-[dS][dY][dA][dOrn][Orn]G[dOrn]WTINGG-NH2)
4 | 32 (≈ 20.3 µM) | CC[C@H](C)[C@H](NC(=O)[C@@H](NC(=O)[C@H](Cc1c[nH]c2ccccc12)NC(=O)[C@@H](CCCN)NC(=O)CNC(=O)[C@H](CCCN)NC(=O)[C@@H](C)NC(=O)[C@@H](Cc1c[nH]c2ccccc12)NC(=O)[C@@H](Cc1ccc(O)cc1)NC(=O)[C@@H](CO)NC(=O)CCCCCC(C)C)[C@@H](C)O)C(=O)N[C@@H](CC(N)=O)C(=O)NCC(=O)NCC(N)=O [Ala4 (D-Orn→D-Ala), FA-sywaOGoWTINGG-CONH2] ({Octanoyl(7-Me)}-[dS][dY][dW][dA][Orn]G[dOrn]WTINGG-NH2)
5 | 4 to 8 | CC[C@H](C)[C@H](NC(=O)[C@@H](NC(=O)[C@H](Cc1c[nH]c2ccccc12)NC(=O)[C@@H](CCCN)NC(=O)[C@H](C)NC(=O)[C@H](CCCN)NC(=O)[C@@H](CCCN)NC(=O)[C@@H](Cc1c[nH]c2ccccc12)NC(=O)[C@@H](Cc1ccc(O)cc1)NC(=O)[C@@H](CO)NC(=O)CCCCCC(C)C)[C@@H](C)O)C(=O)N[C@@H](CC(N)=O)C(=O)NCC(=O)NCC(N)=O [Ala6 (Gly→Ala), FA-sywoOAoWTINGG-CONH2] ({Octanoyl(7-Me)}-[dS][dY][dW][dOrn][Orn]A[dOrn]WTINGG-NH2)
6 | >64 | CC[C@H](C)[C@H](NC(=O)[C@@H](NC(=O)[C@H](Cc1c[nH]c2ccccc12)NC(=O)[C@@H](C)NC(=O)CNC(=O)[C@H](CCCN)NC(=O)[C@@H](CCCN)NC(=O)[C@@H](Cc1c[nH]c2ccccc12)NC(=O)[C@@H](Cc1ccc(O)cc1)NC(=O)[C@@H](CO)NC(=O)CCCCCC(C)C)[C@@H](C)O)C(=O)N[C@@H](CC(N)=O)C(=O)NCC(=O)NCC(N)=O [Ala7 (D-Orn→D-Ala), FA-sywoOGaWTINGG-CONH2] ({Octanoyl(7-Me)}-[dS][dY][dW][dOrn][Orn]G[dA]WTINGG-NH2)
7 | >64 | CC[C@H](C)[C@H](NC(=O)[C@@H](NC(=O)[C@H](C)NC(=O)[C@@H](CCCN)NC(=O)CNC(=O)[C@H](CCCN)NC(=O)[C@@H](CCCN)NC(=O)[C@@H](Cc1c[nH]c2ccccc12)NC(=O)[C@@H](Cc1ccc(O)cc1)NC(=O)[C@@H](CO)NC(=O)CCCCCC(C)C)[C@@H](C)O)C(=O)N[C@@H](CC(N)=O)C(=O)NCC(=O)NCC(N)=O [Ala8 (Trp→Ala), FA-sywoOGoATINGG-CONH2] ({Octanoyl(7-Me)}-[dS][dY][dW][dOrn][Orn]G[dOrn]ATINGG-NH2)
8 | 2 (≈ 1.26 µM) | CC[C@H](C)[C@H](NC(=O)[C@H](C)NC(=O)[C@H](Cc1c[nH]c2ccccc12)NC(=O)[C@@H](CCCN)NC(=O)CNC(=O)[C@H](CCCN)NC(=O)[C@@H](CCCN)NC(=O)[C@@H](Cc1c[nH]c2ccccc12)NC(=O)[C@@H](Cc1ccc(O)cc1)NC(=O)[C@@H](CO)NC(=O)CCCCCC(C)C)C(=O)N[C@@H](CC(N)=O)C(=O)NCC(=O)NCC(N)=O [Ala9 (Thr→Ala), FA-sywoOGoWAINGG-CONH2] ({Octanoyl(7-Me)}-[dS][dY][dW][dOrn][Orn]G[dOrn]WAINGG-NH2)
9 | 16 (≈ 10.1 µM) | CC[C@H](C)[C@H](NC(=O)[C@@H](NC(=O)[C@H](Cc1c[nH]c2ccccc12)NC(=O)[C@@H](CCCN)NC(=O)CNC(=O)[C@H](CCCN)NC(=O)[C@@H](CCCN)NC(=O)[C@@H](Cc1c[nH]c2ccccc12)NC(=O)[C@@H](Cc1ccc(O)cc1)NC(=O)[C@@H](CO)NC(=O)CCCCCC(C)C)[C@@H](C)O)C(=O)N[C@@H](C)C(=O)NCC(=O)NCC(N)=O [Ala11 (Asn→Ala), FA-sywoOGoWTIAGG-CONH2] ({Octanoyl(7-Me)}-[dS][dY][dW][dOrn][Orn]G[dOrn]WTIAGG-NH2)

Further lines, the compound ahead of its results:

Row | Structure (SMILES) | Minimum inhibitory concentration (MIC) [µg/mL]
10 | C[C@@H](N=[N+]=[N-])[C@H](N)C(=O)O [(2S,3R)-2-amino-3-azidobutanoic acid] | 2 to 4
11 | CC[C@H](C)[C@H](NC(=O)[C@@H](NC(=O)[C@H](Cc1c[nH]c2ccccc12)NC(=O)[C@@H](CCCN)NC(=O)CNC(=O)[C@H](C)NC(=O)[C@@H](CCCN)NC(=O)[C@@H](Cc1c[nH]c2ccccc12)NC(=O)[C@@H](Cc1ccc(O)cc1)NC(=O)[C@@H](CO)NC(=O)CCCCCC(C)C)[C@@H](C)O)C(=O)N[C@@H](CC(N)=O)C(=O)NCC(=O)NCC(N)=O [Ala5 (Orn→Ala), FA-sywoAGoWTINGG-CONH2] ({Octanoyl(7-Me)}-[dS][dY][dW][dOrn]AG[dOrn]WTINGG-NH2) | 32 (≈ 20.3 µM)
12 | CC(C)CCCCCC(=O)N[C@H](CO)C(=O)N[C@H](Cc1ccc(O)cc1)C(=O)N[C@H](Cc1c[nH]c2ccccc12)C(=O)N[C@H](CCCN)C(=O)N[C@@H](CCCN)C(=O)NCC(=O)N[C@H](CCCN)C(=O)N[C@@H](Cc1c[nH]c2ccccc12)C(=O)N[C@H](C(=O)N[C@@H](C)C(=O)N[C@@H](CC(N)=O)C(=O)NCC(=O)NCC(N)=O)[C@@H](C)O [Ala10 (Ile→Ala), FA-sywoOGoWTANGG-CONH2] ({Octanoyl(7-Me)}-[dS][dY][dW][dOrn][Orn]G[dOrn]WTANGG-NH2) | 16 (≈ 10.1 µM)
13 | CC[C@H](C)[C@H](NC(=O)[C@@H](NC(=O)[C@H](Cc1c[nH]c2ccccc12)NC(=O)[C@@H](CCCN)NC(=O)CNC(=O)[C@H](CCCN)NC(=O)[C@@H](CCCN)NC(=O)[C@@H](Cc1c[nH]c2ccccc12)NC(=O)[C@@H](Cc1ccc(O)cc1)NC(=O)[C@@H](CO)NC(=O)CCCCCC(C)C)[C@@H](C)O)C(=O)N[C@@H](CC(N)=O)C(=O)N[C@@H](C)C(=O)NCC(N)=O [Ala12 (Gly→Ala), FA-sywoOGoWTINAG-CONH2] ({Octanoyl(7-Me)}-[dS][dY][dW][dOrn][Orn]G[dOrn]WTINAG-NH2) | 4 (≈ 2.45 µM)
14 | CC[C@H](C)[C@H](NC(=O)[C@@H](NC(=O)[C@H](Cc1c[nH]c2ccccc12)NC(=O)[C@@H](CCCN)NC(=O)CNC(=O)[C@H](CCCN)NC(=O)[C@@H](CCCN)NC(=O)[C@@H](Cc1c[nH]c2ccccc12)NC(=O)[C@@H](Cc1ccc(O)cc1)NC(=O)[C@@H](CO)NC(=O)CCCCCC(C)C)[C@@H](C)O)C(=O)N[C@@H](CC(N)=O)C(=O)NCC(=O)N[C@@H](C)C(N)=O [Ala13 (Gly→Ala), FA-sywoOGoWTINGA-CONH2] ({Octanoyl(7-Me)}-[dS][dY][dW][dOrn][Orn]G[dOrn]WTINGA-NH2) | 4 (≈ 2.45 µM)
15 | CC[C@H](C)[C@H](NC(=O)[C@H](CC(N)=O)NC(=O)[C@H](Cc1c[nH]c2ccccc12)NC(=O)[C@@H](CCCN)NC(=O)CNC(=O)[C@H](CCCN)NC(=O)[C@@H](CCCN)NC(=O)[C@@H](Cc1c[nH]c2ccccc12)NC(=O)[C@@H](Cc1ccc(O)cc1)NC(=O)[C@@H](CO)NC(=O)CCCCCC(C)C)C(=O)N[C@@H](CC(N)=O)C(=O)NCC(=O)NCC(N)=O [Asn9-CONH2] ({Octanoyl(7-Me)}-[dS][dY][dW][dOrn][Orn]G[dOrn]WNINGG-NH2) | 4 (≈ 2.45 µM)
16 | CCC(C)CCC(=O)N[C@H](CO)C(=O)N[C@H](Cc1ccc(O)cc1)C(=O)N[C@H](Cc1c[nH]c2ccccc12)C(=O)N[C@H](CCCN)C(=O)N[C@@H](CCCN)C(=O)NCC(=O)N[C@H](CCCN)C(=O)N[C@@H](Cc1c[nH]c2ccccc12)C(=O)N[C@@H]1C(=O)N[C@@H]([C@@H](C)CC)C(=O)NCC(=O)N[C@@H](CO)C(=O)NCC(=O)O[C@@H]1C (stereo partly shown) [Compound R1] ({Hexanoyl(4ξ-Me)}-[dS][dY][dW][dOrn][Orn]G[dOrn]WTIGSG; ester 9-C; N-terminus assumed) | 2 (≈ 1.29 µM)
